Literature values, collected in article PMC3838783 (Applied Biochemistry and Biotechnology, 2013).

System: rats

In the case of CC(=O)NO [acetohydroxyamic acid], the Teratogenicity is given as “teratogenic”.
